Experimental data as given in ChEMBL document CHEMBL1201862, “PubChem BioAssay data set” (2004).
Where a name gives a salt, the structure may show the parent alone.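 Tested at 5 concentrations; 48 h exposure; 96-well plates; endpoints linearly interpolated, else capped at highest concentration. The concentration for 50% growth inhibition is given as GI50.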 Active and inactive are the calls of the source. Cut-off read from the data, not from the text of the source: active = GI50 up to about 1.1 µM and inactive = higher.

Columns and labels:
Assay in all cases: NCI-60 cell line screen, 48 h
EKVX = system: EKVX
SR = system: SR
COLO 205 = system: COLO 205
U-251 = system: U-251
MCF7 = system: MCF7
Hs-578T = system: Hs-578T
Malme-3M = system: Malme-3M
OVCAR-4 = system: OVCAR-4
A498 = system: A498
UACC-62 = system: UACC-62
SF-268 = system: SF-268
CAKI-1 = system: CAKI-1
RXF 393 = system: RXF 393
MDA-MB-231 = system: MDA-MB-231
SK-MEL-5 = system: SK-MEL-5
UO-31 = system: UO-31
SK-MEL-2 = system: SK-MEL-2
LOX IMVI = system: LOX IMVI
RPMI-8226 = system: RPMI-8226
HCT-15 = system: HCT-15

Compound	GI50 (EKVX)	GI50 (SR)	GI50 (COLO 205)	GI50 (U-251)	GI50 (MCF7)	GI50 (Hs-578T)	GI50 (Malme-3M)	GI50 (OVCAR-4)	GI50 (A498)	GI50 (UACC-62)	GI50 (SF-268)	GI50 (CAKI-1)	GI50 (RXF 393)	GI50 (MDA-MB-231)	GI50 (SK-MEL-5)	GI50 (UO-31)	GI50 (SK-MEL-2)	GI50 (LOX IMVI)	GI50 (RPMI-8226)	GI50 (HCT-15) [µM]
CCCCCCCC(CC(=O)NC(CO)C(=O)NC(CO)CC(C)C)OC(=O)CC(CCCCCCC)OC(=O)CC(CCCCCCC)OC1OC(C)C(O)C(OC2OC(C)C(O)C(OC(C)=O)C2O)C1O (centres undefined)	15.3 µM (inactive)	3.27 µM (inactive)	5.86 µM (inactive)	4.2 µM (inactive)	11.9 µM (inactive)	4.1 µM (inactive)	16 µM (inactive)	12.8 µM (inactive)	13.2 µM (inactive)	12.9 µM (inactive)	12 µM (inactive)	15.7 µM (inactive)	8.34 µM (inactive)	11.3 µM (inactive)	12.6 µM (inactive)	14.9 µM (inactive)	–	–	–	–
COc1cc2cc(C(=O)N3CC(CCl)c4c3cc([N+](=O)[O-])c3ccccc43)[nH]c2c(OC)c1OC (centres undefined)	16.7 µM (inactive)	0.455 µM (active)	> 76 µM (inactive)	25.8 µM (inactive)	17.3 µM (inactive)	> 45.1 µM (inactive)	68.1 µM (inactive)	> 51.2 µM (inactive)	> 40.6 µM (inactive)	15.9 µM (inactive)	26.8 µM (inactive)	39.4 µM (inactive)	> 89.3 µM (inactive)	> 100 µM (inactive)	29.6 µM (inactive)	> 100 µM (inactive)	> 100 µM (inactive)	49.9 µM (inactive)	> 100 µM (inactive)	–
Cc1ccc(CNc2ccc(Br)cc2)cc1	25.6 µM (inactive)	18.8 µM (inactive)	16.5 µM (inactive)	28.1 µM (inactive)	18.7 µM (inactive)	70.6 µM (inactive)	21.5 µM (inactive)	–	29.3 µM (inactive)	4.41 µM (inactive)	31.9 µM (inactive)	31.6 µM (inactive)	23.1 µM (inactive)	19.3 µM (inactive)	6.71 µM (inactive)	13.5 µM (inactive)	–	2.01 µM (inactive)	3.44 µM (inactive)	10.4
O=C1c2cccc3cc([N+](=O)[O-])cc(c23)C(=O)N1c1ccc(OCCN2CCCC2)cc1	21.6 µM (inactive)	2.23 µM (inactive)	9.46 µM (inactive)	16.1 µM (inactive)	7.94 µM (inactive)	24.9 µM (inactive)	15 µM (inactive)	28.1 µM (inactive)	12.4 µM (inactive)	–	22 µM (inactive)	> 100 µM (inactive)	17.9 µM (inactive)	43.2 µM (inactive)	13.9 µM (inactive)	13.6 µM (inactive)	24.5 µM (inactive)	10.8 µM (inactive)	–	14.2
N[C@@H](Cc1ccc(N(CCCl)CCCl)cc1)C(=O)O [MELPHALAN HYDROCHLORIDE]	–	1.71 µM (inactive)	43.3 µM (inactive)	27 µM (inactive)	11.1 µM (inactive)	51.8 µM (inactive)	23.8 µM (inactive)	40 µM (inactive)	99.1 µM (inactive)	11.2 µM (inactive)	19.9 µM (inactive)	10.9 µM (inactive)	28.9 µM (inactive)	48.6 µM (inactive)	38.3 µM (inactive)	48 µM (inactive)	56.2 µM (inactive)	20.3 µM (inactive)	44 µM (inactive)	39.4
CCOC(=O)C(C)c1nc2cc(N3CCOCC3)c(F)cc2[nH]c1=O (centres undefined)	> 100 µM (inactive)	> 100 µM (inactive)	> 100 µM (inactive)	> 100 µM (inactive)	> 100 µM (inactive)	> 100 µM (inactive)	> 100 µM (inactive)	> 100 µM (inactive)	> 100 µM (inactive)	> 100 µM (inactive)	> 100 µM (inactive)	> 100 µM (inactive)	> 100 µM (inactive)	> 100 µM (inactive)	> 100 µM (inactive)	> 100 µM (inactive)	> 100 µM (inactive)	–	> 100 µM (inactive)	> 100
Clc1nc(Cl)nc(NC23CC4CC(CC(C4)C2)C3)n1	19.5 µM (inactive)	20.1 µM (inactive)	17.5 µM (inactive)	15.5 µM (inactive)	32.1 µM (inactive)	11.8 µM (inactive)	16.2 µM (inactive)	17.7 µM (inactive)	> 43.4 µM (inactive)	17.9 µM (inactive)	19.2 µM (inactive)	8.09 µM (inactive)	16.7 µM (inactive)	17.9 µM (inactive)	13.7 µM (inactive)	9.33 µM (inactive)	–	13.4 µM (inactive)	12 µM (inactive)	15.6
COc1cc2c(c(OC)c1OC)C(=O)[C@H]1OC(=O)N[C@@H]21	–	> 100 µM (inactive)	> 100 µM (inactive)	> 100 µM (inactive)	> 100 µM (inactive)	> 100 µM (inactive)	–	> 100 µM (inactive)	> 100 µM (inactive)	> 100 µM (inactive)	> 100 µM (inactive)	> 100 µM (inactive)	> 100 µM (inactive)	> 100 µM (inactive)	–	> 100 µM (inactive)	> 100 µM (inactive)	> 100 µM (inactive)	> 100 µM (inactive)	> 100
Cn1c2ccccc2c2c(=S)c3ccccc3ccc21	85.9 µM (inactive)	> 100 µM (inactive)	67.3 µM (inactive)	52.8 µM (inactive)	56.8 µM (inactive)	> 100 µM (inactive)	> 100 µM (inactive)	44.6 µM (inactive)	> 100 µM (inactive)	> 100 µM (inactive)	> 100 µM (inactive)	> 100 µM (inactive)	> 100 µM (inactive)	> 100 µM (inactive)	44.6 µM (inactive)	> 100 µM (inactive)	–	62.1 µM (inactive)	–	> 100
N#CC1=C(S)N(C2OC(CO)C(O)C(O)C2O)C(c2ccccc2)=CC1c1ccco1 (centres undefined)	–	36.9 µM (inactive)	> 10 µM (inactive)	19.8 µM (inactive)	62.2 µM (inactive)	56.5 µM (inactive)	81.7 µM (inactive)	> 100 µM (inactive)	71.6 µM (inactive)	16.3 µM (inactive)	> 100 µM (inactive)	38.8 µM (inactive)	44 µM (inactive)	54.5 µM (inactive)	26.9 µM (inactive)	82.2 µM (inactive)	59 µM (inactive)	23.2 µM (inactive)	23.2 µM (inactive)	68.9
CC(=O)N1N=C(c2ccc3ccccc3c2O)CC1C(=O)c1ccco1 (centres undefined)	–	3.78 µM (inactive)	25.8 µM (inactive)	27.7 µM (inactive)	21.4 µM (inactive)	21.8 µM (inactive)	23.2 µM (inactive)	17.5 µM (inactive)	29.7 µM (inactive)	17 µM (inactive)	14.4 µM (inactive)	44.1 µM (inactive)	32.4 µM (inactive)	80.5 µM (inactive)	25 µM (inactive)	23.1 µM (inactive)	18.7 µM (inactive)	–	17.2 µM (inactive)	26.7
CCOC(=O)Nn1cnnc1Cc1ccccc1	> 100 µM (inactive)	> 100 µM (inactive)	> 100 µM (inactive)	> 100 µM (inactive)	> 100 µM (inactive)	20 µM (inactive)	> 100 µM (inactive)	> 100 µM (inactive)	> 100 µM (inactive)	> 100 µM (inactive)	> 100 µM (inactive)	> 100 µM (inactive)	–	> 100 µM (inactive)	> 100 µM (inactive)	> 100 µM (inactive)	> 100 µM (inactive)	> 100 µM (inactive)	> 100 µM (inactive)	> 100
C=C(C)CCC1C=[N+]([O-])OC(C)(C)C1(C)C (centres undefined)	> 100 µM (inactive)	> 100 µM (inactive)	> 100 µM (inactive)	> 100 µM (inactive)	73.5 µM (inactive)	> 100 µM (inactive)	–	–	> 100 µM (inactive)	79.1 µM (inactive)	> 100 µM (inactive)	> 100 µM (inactive)	> 100 µM (inactive)	> 100 µM (inactive)	> 100 µM (inactive)	> 100 µM (inactive)	–	80 µM (inactive)	> 100 µM (inactive)	84.3
C(=N\NC1=NCCN1)/c1cccc2cc3ccncc3nc12	2.86 µM (inactive)	1.08 µM (active)	1.21 µM (inactive)	1.94 µM (inactive)	3.16 µM (inactive)	3.94 µM (inactive)	10.6 µM (inactive)	3.33 µM (inactive)	11.6 µM (inactive)	3.43 µM (inactive)	3.85 µM (inactive)	2.84 µM (inactive)	2.77 µM (inactive)	2.15 µM (inactive)	9.51 µM (inactive)	3.21 µM (inactive)	–	1.73 µM (inactive)	1.93 µM (inactive)	3.4
O=C1Cc2c([nH]c3ccccc23)C2(CC3CCCCN13)OCCO2 (centres undefined)	> 100 µM (inactive)	> 100 µM (inactive)	> 100 µM (inactive)	> 100 µM (inactive)	> 100 µM (inactive)	89.9 µM (inactive)	62.2 µM (inactive)	> 100 µM (inactive)	> 100 µM (inactive)	76.9 µM (inactive)	> 100 µM (inactive)	> 100 µM (inactive)	29.2 µM (inactive)	84.5 µM (inactive)	> 100 µM (inactive)	> 100 µM (inactive)	> 100 µM (inactive)	–	> 100 µM (inactive)	> 100
